Reference: patent US11771662B2, “Analgesic formulation for control of pain in dogs” (Kansas State University Research Foundation, priority 2017, dated 2023)
Values joined by “and” are separate entries in the source; they are usually repeats but may differ in a detail not shown here. Identical values can stand only once.

Experiments:
[1] = Plasma methadone, naltrexone and naltrexone metabolites, multiple oral doses (Example III); assay type: in vivo, dog; details: oral methadone/fluconazole/naltrexone formulation, both groups; throughout dosing and at least 12 hours after the last dose
Excerpt: Twelve healthy Beagle dogs were divided into two groups of 6 each in a parallel study design. […] Group 1 simulated a patient dropped off the night before surgery, while Group 2 simulated a patient dropped off in the morning for same day early afternoon surgery. Rectal temperature was monitored as a marker of central opioid effects throughout the study and von Frey thresholds were obtained to assess the antinociceptive effects.

in vivo = experiment: in vivo
Method: Five healthy mixed breed, purpose bred dogs were included in this study. […] Blood was obtained immediately prior to the 4 hour dose (i.e. a trough sample).

[2] = system: dogs undergoing ovariohysterectomy; experiment: Ease of IV catheter placement in ovariohysterectomy clinical trial (Example IV); details: 0.5 mg/kg SC q 4 h; with acepromazine 0.05 mg/kg SC
[3] = Plasma methadone concentrations by liquid chromatography/triple quadrupole mass spectrometry (Example I); details: for concentration at 0.333 h / concentration at 0.667 h / concentration at 1 h / concentration at 2 h / concentration at 4 h / concentration at 0 h / concentration at 6 h / concentration at 8 h / concentration at 12 h / concentration at 24 h: dog, in vivo
[4] = 1 mg/kg, Plasma methadone concentration, individual dogs, methadone alone 1 mg/kg PO, Dog 1-6
[5] = Mean plasma methadone concentration, methadone 1 mg/kg PO 24 h after starting fluconazole 2.5 mg/kg PO q 12 h
[6] = Mean plasma methadone concentration, methadone 1 mg/kg PO 24 h after starting fluconazole 5 mg/kg PO q 12 h
[7] = Mean plasma methadone concentration, methadone 1 mg/kg PO 24 h after starting fluconazole 5 mg/kg PO q 24 h

**Q.** For `CCC(=O)C(CC(C)N(C)C)(c1ccccc1)c1ccccc1` (racemic) [methadone], which “Mean plasma concentration of methadone” value [1] is on record?
**A.** exceeded 10 ng/mL

**Q.** What about the “Persistence of methadone plasma concentrations compared to the standard formulation of methadone” value (in vivo; injectable opioid formulation containing an azole antifungal) of the same compound?
**A.** persisted longer

**Q.** And the “Time to which methadone plasma concentrations persisted” value (in vivo; injectable opioid formulation containing an azole antifungal, SC at 0 and 4 h, one dog)?
**A.** at least 32 hours

**Q.** What about the concentration at 32 h (in vivo; mixed breed, dog, in vivo, sc) of the same compound?
**A.** 4 ng/mL

**Q.** And the “IV Catheter placement: A. Unable to restrain the dog (number of dogs)” value [2]?
**A.** 0

**Q.** What about the “IV Catheter placement: B. The dog was restrained, but was difficult (number of dogs)” value [2] of the same compound?
**A.** 2

**Q.** And the “IV Catheter placement: C. The dog was restrained with little effort (number of dogs)” value [2]?
**A.** 8

**Q.** And the “IV Catheter placement: D. The dog was unable to sit sternal and had to be supported (number of dogs)” value [2]?
**A.** 3

**Q.** And the concentration at 0.333 h ([3]; 1 mg/kg, Mean plasma methadone concentration, methadone alone 1 mg/kg PO, 0.333 hr, 6 dogs)?
**A.** 0.8 ng/mL

**Q.** What about the concentration at 0.667 h ([3]; 1 mg/kg, Mean plasma methadone concentration, methadone alone 1 mg/kg PO, 0.667 hr, 6 dogs) of the same compound?
**A.** 1.3 ng/mL

**Q.** And the concentration at 1 h ([3]; 1 mg/kg, Mean plasma methadone concentration, methadone alone 1 mg/kg PO, 1 hr, 6 dogs)?
**A.** 1.2 ng/mL

**Q.** What about the concentration at 2 h ([3]; 1 mg/kg, Mean plasma methadone concentration, methadone alone 1 mg/kg PO, 2 hr, 6 dogs) of the same compound?
**A.** 0.7 ng/mL

**Q.** What about the concentration at 4 h ([3]; 1 mg/kg, Mean plasma methadone concentration, methadone alone 1 mg/kg PO, 4 hr, 6 dogs) of the same compound?
**A.** 0.4 ng/mL

**Q.** What about the concentration at 0 h ([3]; 1 mg/kg, Plasma methadone concentration, individual dogs, methadone alone 1 mg/kg PO, 0 hr, Dog 1-6) of the same compound?
**A.** < 0.5 ng/mL

**Q.** And the concentration at 1 h ([3]; 1 mg/kg, Plasma methadone concentration, individual dogs, methadone alone 1 mg/kg PO, 1 hr, Dog 1-6)?
**A.** 1 ng/mL

**Q.** And the concentration at 4 h ([3]; 1 mg/kg, Plasma methadone concentration, individual dogs, methadone alone 1 mg/kg PO, 4 hr, Dog 1-6)?
**A.** < 0.5 ng/mL

**Q.** What about the concentration at 6 h [3, 4] of the same compound?
**A.** < 0.5 ng/mL

**Q.** And the concentration at 8 h [3, 4]?
**A.** < 0.5 ng/mL

**Q.** And the concentration at 12 h [3, 4]?
**A.** < 0.5 ng/mL

**Q.** And the concentration at 24 h [3, 4]?
**A.** < 0.5 ng/mL

**Q.** And the concentration at 0 h ([3]; Mean plasma methadone concentration, methadone 1 mg/kg PO 24 h after starting fluconazole 2.5 mg/kg PO q 12 h, 0 hr)?
**A.** 0 ng/mL

**Q.** And the concentration at 0.333 h ([3]; Mean plasma methadone concentration, methadone 1 mg/kg PO 24 h after starting fluconazole 2.5 mg/kg PO q 12 h, 0.333 hr)?
**A.** 0.8 ng/mL

**Q.** And the concentration at 0.667 h ([3]; Mean plasma methadone concentration, methadone 1 mg/kg PO 24 h after starting fluconazole 2.5 mg/kg PO q 12 h, 0.667 hr)?
**A.** 5.2 ng/mL

**Q.** And the concentration at 1 h ([3]; Mean plasma methadone concentration, methadone 1 mg/kg PO 24 h after starting fluconazole 2.5 mg/kg PO q 12 h, 1 hr)?
**A.** 16 ng/mL

**Q.** And the concentration at 2 h ([3]; Mean plasma methadone concentration, methadone 1 mg/kg PO 24 h after starting fluconazole 2.5 mg/kg PO q 12 h, 2 hr)?
**A.** 28.4 ng/mL

**Q.** What about the concentration at 4 h ([3]; Mean plasma methadone concentration, methadone 1 mg/kg PO 24 h after starting fluconazole 2.5 mg/kg PO q 12 h, 4 hr) of the same compound?
**A.** 23.3 ng/mL

**Q.** And the concentration at 6 h [3, 5]?
**A.** 19.2 ng/mL

**Q.** What about the concentration at 8 h [3, 5] of the same compound?
**A.** 15.9 ng/mL

**Q.** What about the concentration at 12 h [3, 5] of the same compound?
**A.** 11.6 ng/mL

**Q.** What about the concentration at 24 h [3, 5] of the same compound?
**A.** 5.6 ng/mL

**Q.** And the concentration at 0 h ([3]; Mean plasma methadone concentration, methadone 1 mg/kg PO 24 h after starting fluconazole 5 mg/kg PO q 12 h, 0 hr)?
**A.** 0 ng/mL

**Q.** What about the concentration at 0.333 h ([3]; Mean plasma methadone concentration, methadone 1 mg/kg PO 24 h after starting fluconazole 5 mg/kg PO q 12 h, 0.333 hr) of the same compound?
**A.** 14 ng/mL

**Q.** What about the concentration at 0.667 h ([3]; Mean plasma methadone concentration, methadone 1 mg/kg PO 24 h after starting fluconazole 5 mg/kg PO q 12 h, 0.667 hr) of the same compound?
**A.** 10.3 ng/mL

**Q.** What about the concentration at 1 h ([3]; Mean plasma methadone concentration, methadone 1 mg/kg PO 24 h after starting fluconazole 5 mg/kg PO q 12 h, 1 hr) of the same compound?
**A.** 24.3 ng/mL

**Q.** What about the concentration at 2 h ([3]; Mean plasma methadone concentration, methadone 1 mg/kg PO 24 h after starting fluconazole 5 mg/kg PO q 12 h, 2 hr) of the same compound?
**A.** 43.6 ng/mL

**Q.** And the concentration at 4 h ([3]; Mean plasma methadone concentration, methadone 1 mg/kg PO 24 h after starting fluconazole 5 mg/kg PO q 12 h, 4 hr)?
**A.** 42.5 ng/mL

**Q.** And the concentration at 6 h [3, 6]?
**A.** 33.9 ng/mL

**Q.** And the concentration at 8 h [3, 6]?
**A.** 27.6 ng/mL

**Q.** What about the concentration at 12 h [3, 6] of the same compound?
**A.** 20.2 ng/mL

**Q.** What about the concentration at 24 h [3, 6] of the same compound?
**A.** 8.3 ng/mL

**Q.** What about the concentration at 0 h ([3]; Mean plasma methadone concentration, methadone 1 mg/kg PO 24 h after starting fluconazole 5 mg/kg PO q 24 h, 0 hr) of the same compound?
**A.** 0 ng/mL

**Q.** What about the concentration at 0.333 h ([3]; Mean plasma methadone concentration, methadone 1 mg/kg PO 24 h after starting fluconazole 5 mg/kg PO q 24 h, 0.333 hr) of the same compound?
**A.** 5.8 ng/mL

**Q.** And the concentration at 0.667 h ([3]; Mean plasma methadone concentration, methadone 1 mg/kg PO 24 h after starting fluconazole 5 mg/kg PO q 24 h, 0.667 hr)?
**A.** 22.4 ng/mL

**Q.** And the concentration at 1 h ([3]; Mean plasma methadone concentration, methadone 1 mg/kg PO 24 h after starting fluconazole 5 mg/kg PO q 24 h, 1 hr)?
**A.** 33.7 ng/mL

**Q.** What about the concentration at 2 h ([3]; Mean plasma methadone concentration, methadone 1 mg/kg PO 24 h after starting fluconazole 5 mg/kg PO q 24 h, 2 hr) of the same compound?
**A.** 39.9 ng/mL

**Q.** And the concentration at 4 h ([3]; Mean plasma methadone concentration, methadone 1 mg/kg PO 24 h after starting fluconazole 5 mg/kg PO q 24 h, 4 hr)?
**A.** 31.4 ng/mL

**Q.** What about the concentration at 6 h [3, 7] of the same compound?
**A.** 24 ng/mL

**Q.** And the concentration at 8 h [3, 7]?
**A.** 18.4 ng/mL

**Q.** What about the concentration at 12 h [3, 7] of the same compound?
**A.** 15.3 ng/mL

**Q.** And the concentration at 24 h [3, 7]?
**A.** 5.5 ng/mL

**Q.** What about the “Plasma methadone concentration (not exceeded in any of 6 dogs)” value ([3]; methadone alone 1 mg/kg PO) of the same compound?
**A.** ≤ 2 ng/mL

**Q.** And the “Plasma methadone concentration, individual dogs” value ([3]; methadone alone 1 mg/kg PO, 0 hr, Dog 1-6)?
**A.** <0.5 ng/mL

**Q.** And the “Plasma methadone concentration, individual dogs” value ([3]; methadone alone 1 mg/kg PO, 0.333 hr, Dog 1-6)?
**A.** <0.5 ng/mL (3×) and 1.3 ng/mL (2×) and 1.9 ng/mL

**Q.** What about the “Plasma methadone concentration, individual dogs” value ([3]; methadone alone 1 mg/kg PO, 0.667 hr, Dog 1-6) of the same compound?
**A.** 1.9 ng/mL and 1.2 ng/mL and 0.7 ng/mL and 1.3 ng/mL and 1.5 ng/mL and 1.0 ng/mL

**Q.** And the “Plasma methadone concentration, individual dogs” value ([3]; methadone alone 1 mg/kg PO, 1 hr, Dog 1-6)?
**A.** 1.2 ng/mL (2×) and 1.5 ng/mL and 1.4 ng/mL and 1.1 ng/mL

**Q.** What about the “Plasma methadone concentration, individual dogs” value ([3]; methadone alone 1 mg/kg PO, 2 hr, Dog 1-6) of the same compound?
**A.** <0.5 ng/mL (2×) and 0.8 ng/mL and 1.3 ng/mL and 0.6 ng/mL and 0.9 ng/mL

**Q.** What about the “Plasma methadone concentration, individual dogs” value ([3]; methadone alone 1 mg/kg PO, 4 hr, Dog 1-6) of the same compound?
**A.** <0.5 ng/mL (2×) and 1.0 ng/mL and 0.5 ng/mL and 0.7 ng/mL
